{
  "source": "patent US10314803B2",
  "about": "“Pharmaceutical composition comprising eicosapentaenoic acid and nicotinic acid and methods of using same” (Amarin Pharmaceuticals Ireland Limited, priority 2008, dated 2019)",
  "test_system": "RBC arachidonic acid",
  "experiment": "Red blood cell (RBC) EPA incorporation and arachidonic acid analysis in patients given ethyl-EPA",
  "type": "in vivo, human",
  "settings": "patients, 0.5, 1, 2 or 4 g of 97% pure ethyl-EPA/day for 12 weeks; FIG. 1, average of several clinical studies",
  "description": "An analysis was performed to assess the impact of red blood cell (RBC) EPA incorporation on arachidonic acid formation. In various studies, patients were randomized, on a double-blind basis, to receive either placebo (liquid paraffin) or 0.5 1, 2 or 4 g of 97% pure ethyl-EPA/day for 12 weeks. All the doses were administered in eight identical appearing capsules. RBCs were analyzed for EPA and AA following in general the methodology of Manku et al. M. S. Manku, D. F. Horrobin, Y. S. Huang and N. Morse, Fatty acids in plasma and red cell membranes in normal humans. Lipids 18 (1983), pp. 906-908).\nVenous blood was collected into a tube pretreated with EDTA and centrifuged at 1500 gav for 15 min. The plasma layer and the buffy coat were separated off and the red cells washed with an equal volume of 0.9% saline. Samples were stored at −80° C. prior to analysis. On thawing, the RBCs were suspended in NaCL/H2SO4aq. (17 mmol/l NaCl, 1 mmol/l Sulfuric acid, 1.8 ml), then shaken with methanol (3 ml). Chloroform (6 ml) and C17:O internal standard were added and the sample was stirred vigorously using a vortex mixer. […] The resulting methyl esters of the fatty acids were separated and measured using a Hewlett-Packard HP5890 Series II Plus Gas chromatograph (cp-wax 52CB 25 m capillary column, Chrompack UK). […]",
  "data": [
    {"molecule": "CC/C=C\\C/C=C\\C/C=C\\C/C=C\\C/C=C\\CCCC(=O)OCC", "note": "[EPA, eicosapentaenoic acid ethyl ester]", "values": [
      {"measurement": "RBC EPA", "result": "increased"}
    ]}
  ]
}
